Test [1] deals with α1 (non-selective) receptor. Description: Receptor binding assay, α1 (non-selective). To be noted: rat cerebral cortex, compound A at 10 μM, [3H] prazosin (0.25 nM), 60 min./22° C. As for the experimental part:
(§1) The compound A was tested for ability to bind to 21 types of receptors. […]
(§2) The inhibition rate of the compound A for each radioligand was calculated by the following equation. 100−([measured specific binding]/[control specific binding]×100) Equation: […]
(§3) In the equation, the measured specific binding indicates the amount of binding radioactivity of each radioligand under the presence of the compound A and the corresponding reference compound, and the control specific binding indicates the amount of binding radioactivity of each radioligand under the presence of the corresponding reference compound.

In test [2] the test system is α2 (non-selective) receptor. Briefly: Receptor binding assay, α2 (non-selective). To be noted: rat cerebral cortex, compound A at 10 μM, [3H] RX 821002 (0.5 nM), 30 min./22° C. As for the experimental part: as §1, §2, §3
The target in a further test is T1, β2 receptor (Cavia porcellus, UniProt Q8K4Z4).
T1 construct: guinea-pig lung; from tissue; host or cells: guinea-pig lung
Briefly: Receptor binding assay, β2. To be noted: guinea-pig lung, compound A at 10 μM, [3H] (−)CGP 12177 (+10 nM CGP 20712A) (0.4 nM), 40 min./22° C., read-out: Inhibition rate of compound A for radioligand (%). As for the experimental part: as §1, §2, §3

A further test addresses T2, AT1 (h) receptor (Homo sapiens, UniProt P30556).
T2 construct: expressed in transfected cells; host or cells: CHO cells
Description: Receptor binding assay, AT1 (h). To be noted: human recombinant (CHO cells), compound A at 10 μM, [125I] [Sar1, Ile5]-AT II (0.05 nM), 60 min./37° C., read-out: Inhibition rate of compound A for radioligand (%). As for the experimental part: as §1, §2, §3

A further test concerns the target T3, AT2 (h) receptor (Homo sapiens, UniProt P50052).
T3 construct: expressed in transfected cells; host or cells: Hela cells
Description: Receptor binding assay, AT2 (h). To be noted: human recombinant (Hela cells), compound A at 10 μM, [3H] GCP 42112A (0.05 nM), 180 min./37° C., read-out: Inhibition rate of compound A for radioligand (%). As for the experimental part:
as §1, §2, §3

In a further test the test system is BZD (central) receptor. Briefly: Receptor binding assay, BZD (central). To be noted: rat cerebral cortex, compound A at 10 μM, [3H] flunitrazepam (0.4 nM), 60 min./4° C. As for the experimental part:
as §1, §2, §3

The next test deals with T4, D1 receptor (Rattus norvegicus, UniProt P18901).
T4 construct: rat striatum; from tissue; host or cells: rat striatum
Briefly: Receptor binding assay, D1. To be noted: rat striatum, compound A at 10 μM, [3H] SCH 23390 (0.3 nM), 45 min./22° C. As for the experimental part:
as §1, §2, §3

Another test concerns the target T5, D2 receptor (Rattus norvegicus, UniProt P61169).
T5 construct: rat striatum; from tissue; host or cells: rat striatum
Briefly: Receptor binding assay, D2. To be noted: rat striatum, compound A at 10 μM, [3H] YM-09151-2 (0.1 nM), 60 min./22° C. As for the experimental part:
as §1, §2, §3

Another test concerns GABAA receptor. Description: Receptor binding assay, GABAA. To be noted: rat cerebral cortex, compound A at 10 μM, [3H] muscimol (5 nM), 10 min./4° C. As for the experimental part: as §1, §2, §3
The target of the next test is T6, GABAB receptor (Rattus norvegicus, UniProt Q9Z0U4).
T6 construct: rat cerebral cortex; from tissue; host or cells: rat cerebral cortex
Briefly: Receptor binding assay, GABAB. To be noted: rat cerebral cortex, compound A at 10 μM, [3H] GABA (+40 μM isoguvacine) (10 nM), 10 min./22° C., read-out: Inhibition rate of compound A for radioligand (%). As for the experimental part: as §1, §2, §3

A further test relates to NMDA receptor. Briefly: Receptor binding assay, NMDA. To be noted: rat cerebral cortex, compound A at 10 μM, [3H] CGP 39653 (5 nM), 60 min./4° C. As for the experimental part: as §1, §2, §3
Another test has as its target T7, H1 (h) receptor (Homo sapiens, UniProt P35367).
T7 construct: expressed in transfected cells; host or cells: HEK-293 cells
Description: Receptor binding assay, H1 (h). To be noted: human recombinant (HEK-293 cells), compound A at 10 μM, [3H] pyrilamine (3 nM), 60 min./22° C., read-out: Inhibition rate of compound A for radioligand (%). As for the experimental part:
as §1, §2, §3

The next test addresses T8, H2 receptor (Cavia porcellus, UniProt P47747).
T8 construct: guinea-pig striatum; from tissue; host or cells: guinea-pig striatum
Description: Receptor binding assay, H2. To be noted: guinea-pig striatum, compound A at 10 μM, [3H] APT (0.1 nM), 150 min/22° C., read-out: Inhibition rate of compound A for radioligand (%). As for the experimental part:
as §1, §2, §3

In the next test the target is T9, M1 receptor (Rattus norvegicus, UniProt P08482).
T9 construct: rat cerebral cortex; from tissue; host or cells: rat cerebral cortex
Briefly: Receptor binding assay, M1. To be noted: rat cerebral cortex, compound A at 10 μM, [3H] pirenzepine (1 nM), 60 min./22° C., read-out: Inhibition rate of compound A for radioligand (%). As for the experimental part:
as §1, §2, §3

A further test addresses T10, M2 (h) receptor (Homo sapiens, UniProt P08172).
T10 construct: expressed in transfected cells; host or cells: CHO cells
Description: Receptor binding assay, M2 (h). To be noted: human recombinant (CHO cells), compound A at 10 μM, [3H] AF-DX 384 (2 nM), 60 min./22° C. As for the experimental part:
as §1, §2, §3

Test [3] has as its system N (neuronal) (α-BGTX-insensitive) receptor. Briefly: Receptor binding assay, N (neuronal) (α-BGTX-insensitive). To be noted: rat cerebral cortex, compound A at 10 μM, [3H] cytisine (1.5 nM), 75 min./4° C. As for the experimental part: as §1, §2, §3
The test system of test [4] is 5-HT (non-selective) receptor. Briefly: Receptor binding assay, 5-HT (non-selective). To be noted: rat cerebral cortex, compound A at 10 μM, [3H] serotonin (2 nM), 15 min./37° C. As for the experimental part:
as §1, §2, §3

In test [5] the test system is σ (non-selective) receptor. Description: Receptor binding assay, σ (non-selective). To be noted: rat cerebral cortex, compound A at 10 μM, [3H] DTG (8 nM), 120 min./22° C. As for the experimental part:
as §1, §2, §3

In another test the test system is TH receptor. Description: Receptor binding assay, TH. To be noted: rat liver, compound A at 10 μM, [125I] T3 (0.1 nM), 18 h/4° C. As for the experimental part: as §1, §2, §3
The test system of a further test is TRH receptor. Briefly: Receptor binding assay, TRH. To be noted: rat cerebral cortex, compound A at 10 μM, [3H] Me-TRH (2 nM), 6 h/4° C. As for the experimental part:
as §1, §2, §3

Test [6] deals with T11, sigma-1 receptors expressed in Jurkat cells (Homo sapiens, UniProt Q99720).
T11 construct: In the sigma-1 receptors expressed in Jurkat cells; endogenous in cells; host or cells: Jurkat cells
Briefly: Identification of sigma-1 receptor inhibition constant. Type of test: binding. To be noted: 15 nM [3H] (+)-pentazocine, 37° C. for 120 minutes, Cheng-Prusoff equation. As for the experimental part:
The sigma-1 receptor inhibition constant of the compound A (Ki value) was identified. The test was conducted by a method described below in accordance with Ganapathy, M. E. (1999).
(+)-pentazocine. The reaction was conducted at 37° C. for 120 minutes. The inhibition rate was calculated in the same manner as described in Test Example 1. The Ki value was identified in accordance with the Cheng-Prusoff equation by calculating IC50 based on nonlinear regression analysis.

Test [7] concerns the target T12, sigma-2 receptors expressed in Jurkat cells (Homo sapiens, UniProt Q5BJF2).
T12 construct: In the sigma-2 receptors expressed in Jurkat cells; endogenous in cells; host or cells: Jurkat cells
Description: Identification of sigma-2 receptor inhibition constant. Type of test: binding. To be noted: 25 nM [3H] DTG under the presence of 1 μM (+)-pentazocine, room temperature for 60 minutes, Cheng-Prusoff equation. As for the experimental part: The sigma-2 receptor inhibition constant of the compound A (Ki value) was identified. The test was conducted by a method described below in accordance with Ganapathy, M. E. (1999).
DTG under the presence of 1 μM (+)-pentazocine. The reaction was conducted at room temperature for 60 minutes. The inhibition rate was calculated in the same manner as described in Test Example 1. The Ki value was identified in accordance with the Cheng-Prusoff equation by calculating IC50 based on nonlinear regression analysis.

T11 sequence (Q99720 whole entry): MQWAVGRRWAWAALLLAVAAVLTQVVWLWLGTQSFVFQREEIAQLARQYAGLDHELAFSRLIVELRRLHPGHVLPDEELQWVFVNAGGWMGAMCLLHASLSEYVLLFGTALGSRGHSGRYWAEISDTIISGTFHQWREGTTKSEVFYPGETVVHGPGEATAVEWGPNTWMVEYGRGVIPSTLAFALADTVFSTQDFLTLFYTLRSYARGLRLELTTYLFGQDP
T1 sequence (Q8K4Z4 whole entry): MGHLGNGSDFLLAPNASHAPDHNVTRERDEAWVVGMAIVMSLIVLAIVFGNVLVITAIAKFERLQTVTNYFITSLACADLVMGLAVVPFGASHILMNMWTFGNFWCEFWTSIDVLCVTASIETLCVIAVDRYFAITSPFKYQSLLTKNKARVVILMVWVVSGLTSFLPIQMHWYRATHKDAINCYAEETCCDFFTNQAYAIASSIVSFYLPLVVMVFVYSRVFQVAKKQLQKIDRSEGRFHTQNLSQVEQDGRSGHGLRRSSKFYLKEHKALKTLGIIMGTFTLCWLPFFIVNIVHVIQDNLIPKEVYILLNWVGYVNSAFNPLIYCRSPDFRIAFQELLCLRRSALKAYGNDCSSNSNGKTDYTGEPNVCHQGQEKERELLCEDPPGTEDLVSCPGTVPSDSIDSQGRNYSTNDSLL
T7 sequence (P35367 whole entry): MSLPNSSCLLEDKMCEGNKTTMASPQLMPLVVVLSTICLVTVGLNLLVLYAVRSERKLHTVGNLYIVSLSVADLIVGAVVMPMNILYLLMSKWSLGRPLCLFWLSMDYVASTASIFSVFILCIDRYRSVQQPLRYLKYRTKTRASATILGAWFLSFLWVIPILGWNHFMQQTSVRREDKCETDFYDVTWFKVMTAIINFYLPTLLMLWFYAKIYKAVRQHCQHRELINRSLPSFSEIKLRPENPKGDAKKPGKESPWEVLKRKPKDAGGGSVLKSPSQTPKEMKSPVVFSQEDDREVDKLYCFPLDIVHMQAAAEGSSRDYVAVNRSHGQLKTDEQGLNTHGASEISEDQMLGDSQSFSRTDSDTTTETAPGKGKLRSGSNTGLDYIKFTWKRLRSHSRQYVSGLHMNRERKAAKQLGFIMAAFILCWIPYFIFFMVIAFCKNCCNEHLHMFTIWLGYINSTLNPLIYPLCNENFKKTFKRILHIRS
T9 sequence (P08482 whole entry): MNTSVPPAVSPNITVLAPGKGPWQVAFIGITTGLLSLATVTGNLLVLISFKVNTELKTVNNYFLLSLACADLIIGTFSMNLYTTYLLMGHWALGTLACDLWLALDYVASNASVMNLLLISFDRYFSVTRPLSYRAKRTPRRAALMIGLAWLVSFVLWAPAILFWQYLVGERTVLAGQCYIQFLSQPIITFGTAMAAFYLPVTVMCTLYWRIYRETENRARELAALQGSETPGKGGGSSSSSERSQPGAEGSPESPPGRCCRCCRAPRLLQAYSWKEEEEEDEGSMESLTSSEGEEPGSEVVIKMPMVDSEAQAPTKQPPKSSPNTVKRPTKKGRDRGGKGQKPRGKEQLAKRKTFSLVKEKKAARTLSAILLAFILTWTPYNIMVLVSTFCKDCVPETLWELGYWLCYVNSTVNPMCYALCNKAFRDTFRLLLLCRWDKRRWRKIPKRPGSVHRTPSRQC
T10 sequence (P08172 whole entry): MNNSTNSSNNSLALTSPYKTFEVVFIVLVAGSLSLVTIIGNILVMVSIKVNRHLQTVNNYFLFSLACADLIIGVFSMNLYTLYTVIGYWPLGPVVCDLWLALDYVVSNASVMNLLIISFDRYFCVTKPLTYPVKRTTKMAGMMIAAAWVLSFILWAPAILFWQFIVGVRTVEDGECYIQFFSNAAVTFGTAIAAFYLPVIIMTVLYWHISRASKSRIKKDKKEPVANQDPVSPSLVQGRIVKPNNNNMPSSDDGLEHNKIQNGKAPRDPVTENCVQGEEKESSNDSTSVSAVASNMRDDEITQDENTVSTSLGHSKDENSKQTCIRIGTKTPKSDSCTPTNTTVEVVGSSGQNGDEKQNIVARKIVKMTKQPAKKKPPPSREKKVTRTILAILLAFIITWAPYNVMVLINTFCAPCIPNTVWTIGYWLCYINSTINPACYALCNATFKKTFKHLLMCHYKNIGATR
T2 sequence (P30556 whole entry): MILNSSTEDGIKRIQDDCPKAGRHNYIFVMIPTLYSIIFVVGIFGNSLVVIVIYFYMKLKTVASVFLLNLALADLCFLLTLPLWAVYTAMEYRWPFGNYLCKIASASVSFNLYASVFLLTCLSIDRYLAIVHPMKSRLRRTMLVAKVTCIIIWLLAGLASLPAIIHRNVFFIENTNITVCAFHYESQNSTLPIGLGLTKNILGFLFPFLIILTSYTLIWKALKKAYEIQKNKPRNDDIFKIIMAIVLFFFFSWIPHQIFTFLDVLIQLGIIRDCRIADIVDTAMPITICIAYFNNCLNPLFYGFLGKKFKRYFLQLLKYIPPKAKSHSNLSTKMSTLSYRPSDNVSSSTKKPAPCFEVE
T8 sequence (P47747 whole entry): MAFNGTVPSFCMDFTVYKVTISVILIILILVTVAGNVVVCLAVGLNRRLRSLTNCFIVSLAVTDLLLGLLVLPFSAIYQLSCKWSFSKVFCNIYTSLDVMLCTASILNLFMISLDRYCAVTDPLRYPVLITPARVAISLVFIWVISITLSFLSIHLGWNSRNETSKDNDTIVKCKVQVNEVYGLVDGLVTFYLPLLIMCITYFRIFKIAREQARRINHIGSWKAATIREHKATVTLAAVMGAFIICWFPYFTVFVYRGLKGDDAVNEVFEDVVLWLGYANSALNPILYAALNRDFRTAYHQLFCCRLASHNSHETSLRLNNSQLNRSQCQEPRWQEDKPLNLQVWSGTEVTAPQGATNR
T6 sequence (Q9Z0U4 20-960): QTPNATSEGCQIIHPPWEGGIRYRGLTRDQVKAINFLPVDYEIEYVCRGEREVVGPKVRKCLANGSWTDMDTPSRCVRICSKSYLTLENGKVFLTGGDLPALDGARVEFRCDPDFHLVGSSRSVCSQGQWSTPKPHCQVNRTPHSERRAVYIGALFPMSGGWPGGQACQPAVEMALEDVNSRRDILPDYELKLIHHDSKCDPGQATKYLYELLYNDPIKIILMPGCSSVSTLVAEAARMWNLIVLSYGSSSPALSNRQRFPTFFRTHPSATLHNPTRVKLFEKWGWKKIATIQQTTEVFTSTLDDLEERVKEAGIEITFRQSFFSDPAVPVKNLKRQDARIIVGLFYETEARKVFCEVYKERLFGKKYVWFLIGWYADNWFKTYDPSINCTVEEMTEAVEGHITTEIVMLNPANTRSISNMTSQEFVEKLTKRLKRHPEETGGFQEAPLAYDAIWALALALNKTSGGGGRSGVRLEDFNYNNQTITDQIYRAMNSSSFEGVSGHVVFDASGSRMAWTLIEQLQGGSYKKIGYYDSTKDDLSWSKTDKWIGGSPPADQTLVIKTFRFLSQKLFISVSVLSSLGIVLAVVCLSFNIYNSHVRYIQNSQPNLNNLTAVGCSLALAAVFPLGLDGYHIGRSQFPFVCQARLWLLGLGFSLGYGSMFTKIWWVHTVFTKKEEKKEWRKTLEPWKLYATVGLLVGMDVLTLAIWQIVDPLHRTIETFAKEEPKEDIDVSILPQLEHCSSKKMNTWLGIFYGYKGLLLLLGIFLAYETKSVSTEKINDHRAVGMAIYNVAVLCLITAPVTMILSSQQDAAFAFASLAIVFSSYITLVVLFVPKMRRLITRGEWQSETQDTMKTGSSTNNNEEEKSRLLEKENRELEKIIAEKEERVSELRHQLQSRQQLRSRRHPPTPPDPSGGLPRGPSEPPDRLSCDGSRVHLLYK
T6 sequence (O88871 41-940 partner): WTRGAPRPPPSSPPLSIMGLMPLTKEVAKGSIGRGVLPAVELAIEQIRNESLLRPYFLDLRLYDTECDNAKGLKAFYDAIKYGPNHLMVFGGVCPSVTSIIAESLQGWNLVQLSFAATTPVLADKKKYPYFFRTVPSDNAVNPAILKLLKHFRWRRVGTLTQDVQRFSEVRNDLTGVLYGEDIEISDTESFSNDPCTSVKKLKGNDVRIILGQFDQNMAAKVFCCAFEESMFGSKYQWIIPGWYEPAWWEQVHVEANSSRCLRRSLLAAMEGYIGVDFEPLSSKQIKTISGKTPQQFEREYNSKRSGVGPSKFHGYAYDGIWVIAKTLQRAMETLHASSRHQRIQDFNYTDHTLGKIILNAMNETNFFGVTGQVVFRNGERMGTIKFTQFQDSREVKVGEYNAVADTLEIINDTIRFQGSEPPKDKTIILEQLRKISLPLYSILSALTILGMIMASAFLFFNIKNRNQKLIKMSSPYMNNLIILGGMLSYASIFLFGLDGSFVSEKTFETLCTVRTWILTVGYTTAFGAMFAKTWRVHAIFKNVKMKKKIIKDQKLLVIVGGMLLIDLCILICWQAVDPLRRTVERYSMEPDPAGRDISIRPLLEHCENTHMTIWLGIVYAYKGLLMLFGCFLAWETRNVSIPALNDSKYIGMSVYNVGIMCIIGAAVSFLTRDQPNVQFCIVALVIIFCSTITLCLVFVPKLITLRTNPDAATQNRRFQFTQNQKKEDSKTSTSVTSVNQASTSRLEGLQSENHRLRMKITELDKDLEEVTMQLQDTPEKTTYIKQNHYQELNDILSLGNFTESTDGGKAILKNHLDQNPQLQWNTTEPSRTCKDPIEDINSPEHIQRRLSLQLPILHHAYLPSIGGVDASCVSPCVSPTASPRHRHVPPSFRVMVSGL
T3 sequence (P50052 whole entry): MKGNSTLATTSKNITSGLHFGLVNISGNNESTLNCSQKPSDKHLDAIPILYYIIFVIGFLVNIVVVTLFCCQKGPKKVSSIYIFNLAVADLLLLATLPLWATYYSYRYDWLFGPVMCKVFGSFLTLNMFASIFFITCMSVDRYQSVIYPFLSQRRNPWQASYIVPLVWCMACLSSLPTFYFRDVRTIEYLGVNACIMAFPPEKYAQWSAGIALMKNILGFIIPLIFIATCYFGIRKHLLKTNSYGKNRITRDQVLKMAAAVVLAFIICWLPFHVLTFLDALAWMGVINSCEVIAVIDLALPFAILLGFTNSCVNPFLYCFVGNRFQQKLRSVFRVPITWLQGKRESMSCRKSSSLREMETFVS

As usually defined, the inhibition is the change of the read-out against control, counted positive when it falls. As a reminder, the Ki is the dissociation constant of the complex between target and ligand, obtained from inhibition or displacement. Consider `O=C(O)/C=C\C(=O)O.OC1CN(CCCOCCc2ccc3sccc3c2)C1` [compound A, 1-(3-(2-(1-benzothiophene-5-yl)ethoxy)propyl)azetidine-3-ol maleate], for which the “Inhibition rate of compound A for radioligand (%)” value (from here on “Inhibition rate … (%)”) in [1] is recorded as 36%; in test [2] it was 40%; in the test on BZD (central) receptor, 25%; at D1 receptor, 1%; at D2 receptor, 21%; in the test with GABAA receptor, −8%. The “Inhibition rate … (%)” value is on record as 16% with NMDA receptor; 19% at M2 (h) receptor; 12% in test [3]; 2% in test [4]; 99% in test [5]; −5% with TH receptor. The “Inhibition rate … (%)” value in the test with TRH receptor was found to be 1%. For the same molecule, the inhibition at 10 µM was 5% on β2 receptor; -2% on AT1 (h) receptor; -13% at AT2 (h) receptor; 4% on GABAB receptor; -15% on H1 (h) receptor; 72% on H2 receptor. Also, the inhibition at 10 µM on M1 receptor is 43%. The values for the Ki in test [6] and in test [7] were 16 nM and 160 nM, respectively.

The values above are taken from patent US10238632B2, “Sigma receptor-binding agent” (FUJIFILM Toyama Chemical Co., Ltd., priority 2015, dated 2019).
